Tests used:
[1] = system: cAMP response element-binding protein (CREB); assay: sGC stimulator induced phosphorylation of CREB in rat primary neurons; format: cell-based; conditions: Primary neuron, 10 μM DETA-NONOate, free acid, geometrical mean, read-out: pCREB EC50
Experimental: Neurons were isolated from Sprague Dawley rat embryos on embryonic day 18 (E18). Approximately 10 embryos were obtained from each rat, and whole brains were isolated from the embryos. Hippocampus and cortex were dissected from the brains under a stereoscopic microscope using two fine tweezers. The meninges were carefully removed. After dissection, the tissues were chopped and washed gently once with 10 mL of Ca^2+ and Mg^2+ free Hank's balanced salt solution (HBSS, Corning cat #21-022-CM) in a 15-mL conical tube. After washing, 5 mL of a solution of 0.25% trypsin (Invitrogen cat #15090-046) and 0.1% deoxyribonuclease I (DNase I, Sigma cat #DN-25) were added to the tissues, then incubated at 37° C. for 15 min. Next, tissues were washed 3 times with ice-cold HBSS, 3 mL of a solution of 0.1% of DNase I was added, then tissues were slowly pipetted 12 times using a glass Pasteur pipette, followed by centrifugation at 500×g for 10 min. […]
For each test concentration, the compound was diluted in 100% DMSO to 100× its final assay concentration. […] Medium was removed, cells were lysed and levels of pCREB was determined according to Cisbio protocols (phospho-CREB (Ser133) catalog #64CREPEG). Plates were read using Envision instrument (PerkinElmer).
pCREB was determined for each well and analyzed with a […] (log(agonist) vs. response-variable slope) using GraphPad Prism Software v.8. […]

[2] = system: MK-801-induced memory deficit; assay: Novel Object Recognition (NOR) test, MK-801-induced memory disruption; format: in vivo, rat; conditions: for Recognition Index vs Vehicle-MK-801 group: 1 mg/kg PO 60 min prior to training, MK-801 0.1 mg/kg; for side effects in NOR study: any dose tested, oral, Long Evans rats
Experimental: In the present study, a memory saving model was used. MK-801 (Dizocilpine), an uncompetitive antagonist of the NMDA receptor was used to cause deficit of recognition memory. sGC stimulators were evaluated for their efficacy to prevent memory impairment induced by MK-801.
Adult male Long-Evans rats (275-299 gram at arrival from Envigo, Indianapolis, IN) were used in this study. Rats were placed in the experimental rooms and assigned unique identification numbers (tail marks). Rats were housed 2 per cage in polycarbonate cages with filter tops and acclimated for at least 7 days prior to testing. Animal room was maintained in a 12/12 h light/dark cycle (lights on at 07.00 EST), 22±1° C. and relative humidity at approximately 50%. Food and water were provided ad libitum. All animals were examined, handled and weighed prior to the study to assure adequate health and to minimize the non-specific stress associated with testing. Each animal was randomly assigned across the treatment groups. The experiments were conducted during the animal's light cycle phase.
MK-801 (0.1 mg/kg; Sigma-Aldrich) was dissolved in saline and injected IP, 15 min prior to NOR training. The dose volume was 1 ml/kg.
Galantamine (1 mg/kg; Tocris) was dissolved in saline and injected IP, 15 minutes prior to training. The dose volume was 1 ml/kg.
Compound I-20 (0.03, 0.3 and 1 mg/kg) was formulated in vehicle (0.5% (w/w) methyl cellulose and 0.5% (w/w) Tween 80 in ultrapure water) and orally dosed 60 min prior to NOR training at 2 ml/kg dose volume.
Compound I-14 (0.01, 0.1 and 1 mg/kg) was formulated as its Na+ salt as a solution in MilliQ water and stored as frozen aliquots. The aliquots of compound solutions and compound vehicle were stored in −80° C. and freshly thawed on each testing day. The compound and vehicle were orally dosed 60 minutes prior to NOR training. The dose volume was 10 ml/kg.
NOR test was conducted in an open-field arena (40×40 cm) placed in a sound-attenuated room under dimmed lighting. Each rat was tested separately, and care was taken to remove olfactory/taste cues by cleaning the arena and test objects with 70% alcohol between trials and rats. All training and testing trials were video-taped and scored by an observer blind to treatments.
On Days 1 and 2, rats were allowed to freely explore the arena (no objects inside) for a 5-minute habituation period. On Day 3 (training and testing day), rats were administered vehicle, saline and/or compound solution according to corresponding pretreatment, which is defined as time between injection and start of NOR training. Each animal was placed into the test arena in the presence of two identical objects. Each rat was placed in the arena facing the same direction at the same position, and the time spent actively exploring the objects during a 3-minute training period (T1) was recorded. The rat was returned to its home cage following training. NOR test (T2) was conducted 1 hour after T1. Each rat was placed back into the test arena in the presence of one familiar object and one novel object for 5 minutes, and the time spent exploring both objects was recorded. […]
Data of NOR test (T2) were expressed as Recognition Index, which is defined as the ratio of the time spent exploring the novel object over the total time spent exploring both objects (Novel/(Familiar+Novel)×100%) during the test session.
For Compound I-14, data were analyzed in two batches separately. […] Data were analyzed with t-test to evaluate the validity of the test. […]

Compound	EC50 [1]	Recognition Index vs Vehicle-MK-801 group ([2]; 0-1 minute time range)	Recognition Index vs Vehicle-MK-801 group ([2]; 0-3 minute time range)	Recognition Index vs Vehicle-MK-801 group ([2]; 0-5 minute time range)	side effects in NOR study [2]
Cc1cc(F)c(Cc2nc(-c3ncc(F)c(O)n3)cn3ccnc23)cc1F [Compound I-14, 5-fluoro-2-(8-(2,5-difluoro-4-methylbenzyl)imidazo[1,2-a]pyrazin-6-yl)pyrimidin-4-ol]	21 nM	reversed the deficit	trend (P<0.10) in reversing MK-801-induced memory deficit	significantly higher Recognition Index	None of the rats in this study showed obvious side effects at any dose
Oc1nc(-c2cn3ccnc3c(Cc3cc(F)ccc3F)n2)ncc1F [Compound I-20, 5-fluoro-2-(8-(2,5-difluorobenzyl)imidazo[1,2-a]pyrazin-6-yl)pyrimidin-4-ol]	13 nM	–	–	–	None of the rats in this study showed obvious side effects at any dose
